This is an account of results in patent US7785705B2, “Flower thinning agent” (priority 2002, dated 2010).

The subject of experiment [1] is pear (Kosui) tree. Nature of the experiment: Flower thinning effect on pear (Kosui) tree at low air temperature and bad weather. Conditions: low air temperature at flowering, bad weather. The source says: Using a pear (Kosui) tree, flower thinning effect was confirmed. That is, using the aforementioned pear tree, the flower thinning agent of Example 1 was spread at a concentration indicated in Table 10 two times, at a flowering rate of 30% and 80%. In this respect, at the present experiment, an air temperature at flowering was low, and weather was bad. Therefore, a scatter in flowering was greater than usual. […] Treatment was every branch treatment, and the agent was spread with a back loading sprayer.
(§1) Assessment was expressed as a remaining fruit rate relative to the number of flowering. Regarding medicine damage, results of observation of a leaf state such as defoliation, discolored leaf and deformed leaf were expressed by the following five stages.
According to the same manner as that of Application Example 64 except that any of the flower thinning agents of Examples 4, 5, 7, 9, 15 and 21, and Comparative Examples 1, 4, 8 and 10 was used in place of the flower thinning agent of Example 1, an experiment was performed.
(§2) An effective ingredient concentration was based on a solid matter weight of a lime and sulfur agent.
(§3) An effective ingredient concentration was based on a solid matter weight of itaconic acid.
(§4) An effective ingredient concentration was based on a solid matter weight of high purity lecithin.
An effective ingredient concentration was based on a solid matter weight of calcium formate.

In experiment [2] the test system is pear (Kosui) tree. Nature of the experiment: Flower thinning effect on pear (Kosui) tree, agent spread two times, at a flowering rate of 30% and 80%. The experiment is classed as in vivo.
Text: Using a pear (Kosui) tree, flower thinning effect was confirmed. That is, using the aforementioned pear tree, the flower thinning agent of Example 1 was spread at a concentration indicated in Table 6 two times, at a flowering rate of 30% and 80%. […] Treatment was every branch treatment, and the agent was spread with a back loading sprayer.
as §1, §2, §3, §4

The subject of experiment [3] is grape (King Dela) tree. Nature of the experiment: Flower thinning effect on grape (King Dela) tree, agent spread two times, at a flowering rate of 30% and 80%. The experiment is classed as in vivo. An excerpt:
Using a grape (King Dela) tree, flower thinning effect was confirmed.
Assessment was expressed as a remaining fruit rate regarding the number of flowering.

For experiment [4], the system named is apple (Fuji) tree. Nature of the experiment: Flower thinning effect on apple (Fuji) tree, agent spread two times, one day and three days after full blooming of a central flower. It counts as in vivo. An excerpt:
Using an apple (Fuji) tree, flower thinning effect was confirmed. […] Assessment was expressed by a remaining fruit rate regarding a central flower and a lateral flower.

The mark [5] stands for this setting: effective ingredient conc. 0.33%.
Where [6] appears, read: effective ingredient conc. 1.00%.

With `C=C(CC(=O)O)C(=O)O` [itaconic acid], the “Remaining fruit rate (%)” value in experiment [1] (setting [5]) was found to be 70.0%; in experiment [1] (setting [6]), 63.9%; in experiment [2] (setting [5]) it was 57.9%; in experiment [2] (setting [6]), 53.3%; in experiment [3] (setting [5]), 57.5%; in experiment [3] (setting [6]), 53.0%. Further, the “Fruition rate (%) Central flower” value was found to be 88.2% in experiment [4] (setting [5]) and 85.4% in experiment [4] (setting [6]). Besides, the “Fruition rate (%) Lateral flower” value was found to be 57.9% in experiment [4] (setting [5]) and 50.3% in experiment [4] (setting [6]).
With `O=C[O-].O=C[O-].[Ca+2]` [calcium formate], the “Remaining fruit rate (%)” value in experiment [1] (effective ingredient conc. 0.15%) is recorded as 79.9%; in experiment [1] (effective ingredient conc. 0.45%) it was 72.3%.
